According to patent US20250230193A1, “CYCLIC COMPOUND HAVING SELECTIVE KRAS INHIBITORY EFFECT ON HRAS AND NRAS” (CHUGAI SEIYAKU KABUSHIKI KAISHA, priority 2022, published 2025):

Columns and labels:
[1] = target: GDP-bound HRAS wild-type protein (Homo sapiens, UniProt P01112); test: Binding to HRAS by surface plasmon resonance (SPR), Single Cycle Kinetics
[2] = target: GDP-bound NRAS wild-type protein (Homo sapiens, UniProt P01111); test: Binding to NRAS by surface plasmon resonance (SPR), Single Cycle Kinetics
Sequence of GDP-bound NRAS wild-type protein (P01111 whole entry): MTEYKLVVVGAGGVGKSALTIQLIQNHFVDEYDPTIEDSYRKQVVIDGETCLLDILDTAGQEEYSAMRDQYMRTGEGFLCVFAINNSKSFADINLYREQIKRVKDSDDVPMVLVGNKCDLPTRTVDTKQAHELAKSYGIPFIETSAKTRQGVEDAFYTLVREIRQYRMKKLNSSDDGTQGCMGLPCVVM

[3] = KD ratio, GDP-bound HRAS wild-type vs GDP-bound KRAS wild-type, SPR
[4] = KD ratio, GDP-bound NRAS wild-type vs GDP-bound KRAS wild-type, SPR
[5] = SPR, GDP-bound HRAS wild-type vs GDP-bound KRAS wild-type
[6] = SPR, GDP-bound NRAS wild-type vs GDP-bound KRAS wild-type

Sequence of GDP-bound HRAS wild-type protein (P01112 whole entry): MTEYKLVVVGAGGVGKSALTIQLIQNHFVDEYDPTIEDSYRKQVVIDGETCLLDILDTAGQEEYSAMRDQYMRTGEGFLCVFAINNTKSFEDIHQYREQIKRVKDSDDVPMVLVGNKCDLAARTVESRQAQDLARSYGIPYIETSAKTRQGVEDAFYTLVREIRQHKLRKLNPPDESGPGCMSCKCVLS

CCCN(C)C(=O)[C@@H]1CC(=O)N(C)[C@@H](C)C(=O)N[C@@H]([C@@H](C)CC)C(=O)N(C)CC(=O)N(C)[C@H]2C/C=C\CCN(C2=O)[C@@H](Cc2ccc(C(F)(F)F)cc2)C(=O)N(C)CC(=O)N[C@@H](CCc2cc(F)c(C(F)(F)F)c(F)c2)C(=O)N2C[C@H](F)C[C@H]2C(=O)NC2(CC(C)(C)C2)C(=O)N(C)[C@@H](C2CCCC2)C(=O)N1C [PP1663]
HRAS/KRAS (ratio of KD value for HRAS to KD value for KRAS) [1, 3]: A (a compound having 10 or more and less than 20 is denoted as A) | NRAS/KRAS (ratio of KD value for NRAS to KD value for KRAS) [2, 4]: AA (a compound having 20 or more is denoted as AA)

CCCOC[C@H]1C(=O)N[C@@H]([C@@H](C)CC)C(=O)N(C)CC(=O)N(C)[C@H]2C/C=C\CCN(C2=O)[C@@H](Cc2ccc(C(F)(F)F)cc2)C(=O)N(C)CC(=O)N[C@@H](CCc2cc(F)c(C(F)(F)F)c(F)c2)C(=O)N2C[C@@H](C)C[C@H]2C(=O)NC2(CC(C)(C)C2)C(=O)N(C)[C@@H](C2CCCC2)C(=O)N(C)[C@H](C(=O)N(C)CC)CC(=O)N1C [PP2043]
HRAS/KRAS (ratio of KD value with respect to HRAS to KD value with respect to KRAS) [1, 5]: A (a compound having 10 or more and less than 20 is denoted as A) | NRAS/KRAS (ratio of KD value with respect to NRAS to KD value with respect to KRAS) [2, 6]: A (a compound having 10 or more and less than 20 is denoted as A)

CC[C@H](C)[C@@H]1NC(=O)[C@H](CC(C)C)N(C)C(=O)C[C@@H](C(=O)N2CCOCC2)N(C)C(=O)[C@H](C2CCCCC2)N(C)C(=O)C2(CCCC2)NC(=O)[C@@H]2CCCN2C(=O)[C@H](CCc2cc(F)c(C(F)(F)F)c(F)c2)NC(=O)CN(C)C(=O)[C@H](Cc2ccc(C(F)(F)F)cc2)N2CCCCC[C@@H](C2=O)N(C)C(=O)CN(C)C1=O [PP0505]
HRAS/KRAS (ratio of KD value with respect to GDP-bound HRAS wild-type protein to KD value with respect to KRAS) ([1]; SPR): B (a compound having 3 or more and less than 10 is denoted as B) | NRAS/KRAS (ratio of KD value with respect to GDP-bound NRAS wild-type protein to KD value with respect to KRAS) ([2]; SPR): B (a compound having 3 or more and less than 10 is denoted as B)

CCO[C@@H]1C[C@H]2C(=O)NC3(CCC3)C(=O)N(C)[C@@H](C(C)(C)C)C(=O)N(C)[C@H](C(=O)N3CCOCC3)CC(=O)N(C)[C@@H](CC(C)C)C(=O)N[C@@H]([C@@H](C)CC)C(=O)N(C)CC(=O)N(C)[C@H]3CCCCN(C3=O)[C@@H](Cc3ccc(C(F)(F)F)cc3)C(=O)N(C)CC(=O)N[C@@H](CCc3cc(F)c(C(F)(F)F)c(F)c3)C(=O)N2C1 [PP0814]
HRAS/KRAS (ratio of KD value with respect to HRAS to KD value with respect to KRAS) [1, 3]: B (a compound having 3 or more and less than 10 is denoted as B) | NRAS/KRAS (ratio of KD value with respect to NRAS to KD value with respect to KRAS) [2, 4]: B (a compound having 3 or more and less than 10 is denoted as B)

C#CCN1CC(=O)N(C)[C@H]2C/C=C\CCN(C2=O)[C@@H](Cc2ccc(C)cc2)C(=O)N(C)CC(=O)N[C@@H](CCc2ccc(C(F)(F)F)c(OC)c2)C(=O)N2C[C@H](OCC)C[C@H]2C(=O)NC2(CC(C)(C)C2)C(=O)N(C)[C@@H](C2CCCC2)C(=O)N(C)[C@H](C(=O)N(C)C)CC(=O)N(C)[C@@H](CCC)C(=O)N[C@@H]([C@@H](C)CC)C1=O [PP2099]
HRAS/KRAS (ratio of KD value with respect to HRAS to KD value with respect to KRAS) [1, 5]: A (a compound having 10 or more and less than 20 is denoted as A) | NRAS/KRAS (ratio of KD value with respect to NRAS to KD value with respect to KRAS) [2, 6]: A (a compound having 10 or more and less than 20 is denoted as A)

CC[C@H](C)[C@@H]1NC(=O)[C@H](COC)N(C)C(=O)C[C@@H](C(=O)N2CCOCC2)N(C)C(=O)[C@H](C2CCCC2)N(C)C(=O)C2(CCC2)NC(=O)[C@@H]2C[C@@H](OC)CN2C(=O)[C@H](CCc2cc(F)c(C(F)(F)F)c(F)c2)NC(=O)CN(C)C(=O)[C@H](Cc2ccc(C(F)(F)F)cc2)N2CCCCC[C@@H](C2=O)N(C)C(=O)CN(C)C1=O [PP0837]
HRAS/KRAS (ratio of KD value with respect to HRAS to KD value with respect to KRAS) [1, 3]: B (a compound having 3 or more and less than 10 is denoted as B) | NRAS/KRAS (ratio of KD value with respect to NRAS to KD value with respect to KRAS) [2, 4]: B (a compound having 3 or more and less than 10 is denoted as B)

CCC[C@H]1C(=O)N[C@@H]([C@@H](C)CC)C(=O)N(C2CC2)CC(=O)N(C)[C@H]2C/C=C\CCN(C2=O)[C@@H](Cc2ccc(C)cc2)C(=O)N(C)CC(=O)N[C@@H](CCc2ccc(Cl)c(Cl)c2)C(=O)N2C[C@H](OC3CCC3)C[C@H]2C(=O)NC2(CC(C)(C)C2)C(=O)N(C)[C@@H](C2CCCC2)C(=O)N(C)[C@H](C(=O)N(C)C)CC(=O)N1C [PP2616]
HRAS/KRAS (ratio of KD value with respect to GDP-bound HRAS wild-type protein to KD value with respect to KRAS) ([1]; class symbols): A (a compound having 10 or more and less than 20 is denoted as A) | NRAS/KRAS (ratio of KD value with respect to GDP-bound NRAS wild-type protein to KD value with respect to KRAS) ([2]; class symbols): A (a compound having 10 or more and less than 20 is denoted as A)

CC[C@H](C)[C@@H]1NC(=O)[C@H](COC)N(C)C(=O)C[C@@H](C(=O)N(CC)CC)N(C)C(=O)[C@H](C2CCCC2)N(C)C(=O)C2(CC(C)(C)C2)NC(=O)[C@@H]2C[C@H](C)CN2C(=O)[C@H](CCc2ccc(C(F)(F)F)c(OC)c2)NC(=O)CN(C)C(=O)[C@H](Cc2ccc(C)cc2)N2CC/C=C\C[C@@H](C2=O)N(C)C(=O)CN(C)C1=O [PP2441]
HRAS/KRAS (ratio of KD value with respect to HRAS to KD value with respect to KRAS) [1, 5]: A (a compound having 10 or more and less than 20 is denoted as A) | NRAS/KRAS (ratio of KD value with respect to NRAS to KD value with respect to KRAS) [2, 6]: AA (a compound having 20 or more is denoted as AA)
